Values quoted from earlier work, collected in patent US12121499B2, “Pharmaceutical composition comprising the phytocannabinoids cannabidivarin (CBDV) and cannabidiol (CBD)” (priority 2011, dated 2024).
Like-named read-outs stand apart in the source and are kept apart here.

How the values were obtained:
CB1 receptor [1] = biological target: T1, CB1 receptor (Homo sapiens, UniProt P21554); conditions: WO 2007/138322
[2] = tested on: seizure frequency in epileptic patients; conditions: 200-300 mg of cannabidiol per day plus standard antiepileptic drugs; 12 epileptic patients
CB2 receptor = CB2 receptor (Homo sapiens, UniProt P34972); conditions: WO 2007/138322
grand mal seizures = conditions: 200-300 mg cannabidiol plus regular medication
[3] = rats; WO 2007/138322
seizure frequency = conditions: 900-1200 mg of cannabidiol a day for 10 months; single patient
seizures = conditions: 5 institutionalized children not responding to phenobarbital and phenoytin
CB1 receptor [4] = biological target: T1, CB1 receptor; conditions: WO 2006/054057; Pertwee (2000)
[5] = rats, doses greater than 200 mg/kg

T1 sequence (P21554 whole entry): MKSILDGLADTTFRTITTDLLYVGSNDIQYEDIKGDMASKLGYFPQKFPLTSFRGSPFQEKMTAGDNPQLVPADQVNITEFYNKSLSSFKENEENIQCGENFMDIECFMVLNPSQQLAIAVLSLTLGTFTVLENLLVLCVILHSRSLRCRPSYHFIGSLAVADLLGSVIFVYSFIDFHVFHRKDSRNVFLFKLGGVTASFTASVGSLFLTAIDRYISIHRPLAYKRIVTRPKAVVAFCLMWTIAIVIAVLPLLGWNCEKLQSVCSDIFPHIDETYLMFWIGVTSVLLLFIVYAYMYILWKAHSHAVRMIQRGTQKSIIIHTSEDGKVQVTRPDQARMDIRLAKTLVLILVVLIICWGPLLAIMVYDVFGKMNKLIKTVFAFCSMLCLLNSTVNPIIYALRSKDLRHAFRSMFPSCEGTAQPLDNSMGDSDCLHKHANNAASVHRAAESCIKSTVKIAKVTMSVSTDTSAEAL
Chain of CB2 receptor (P34972 whole entry): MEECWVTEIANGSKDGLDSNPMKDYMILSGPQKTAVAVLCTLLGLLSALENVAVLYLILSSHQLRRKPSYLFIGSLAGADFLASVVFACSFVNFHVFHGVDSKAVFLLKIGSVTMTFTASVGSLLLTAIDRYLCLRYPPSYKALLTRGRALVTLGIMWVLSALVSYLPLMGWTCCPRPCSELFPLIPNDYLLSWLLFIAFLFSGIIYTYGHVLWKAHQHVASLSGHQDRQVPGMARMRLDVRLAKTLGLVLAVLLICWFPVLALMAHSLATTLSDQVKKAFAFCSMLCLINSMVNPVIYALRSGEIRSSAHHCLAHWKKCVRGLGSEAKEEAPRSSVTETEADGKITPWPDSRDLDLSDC

Structure (SMILES): C=C(C)[C@@H]1CCC(C)=C[C@H]1c1c(O)cc(CCCCC)cc1O [CBD, Cannabidiol]
- action at the CB1 receptor (CB1 receptor [1]): inverse agonist
- seizure frequency [2]: no significant improvement
- action at the CB2 receptor (CB2 receptor): inverse agonist
- patients who remained unchanged (grand mal seizures): 1
- patients who showed minor improvement (grand mal seizures): 2
- patients who showed partial improvement (grand mal seizures): 2
- unwanted effect (grand mal seizures): mild sedation
- patients who showed complete improvement (grand mal seizures; 16 grand mal patients in study): 3
- bodyweight [3]: reduced bodyweight
- seizure frequency (seizure frequency): markedly reduced

Structure (SMILES): CCCCCc1cc(O)c2c(c1)OC(C)(C)[C@@H]1CCC(C)=C[C@@H]21 [THC, Tetrahydrocannabinol]
- seizure outcome (seizures): One became entirely free of seizures, one became almost completely free of seizures, and the other three did no worse than before

Structure (SMILES): CCCc1cc(O)c2c(c1)OC(C)(C)[C@@H]1CCC(C)=C[C@@H]21 [THCV, Tetrahydrocannabivarin]
- action at the CB1 receptor (CB1 receptor [4]): CB1 receptor antagonist

Structure (SMILES): CCC1(C)CC(=O)NC1=O (stereo not drawn) [ethosuximide]
- motor and other side effects [5]: notable motor and other side effects (including sedation)

Structure (SMILES): CCC1(c2ccccc2)C(=O)NC(=O)NC1=O [phenobarbital]
- motor and other side effects (rat models of epilepsy, doses greater than 250 mg/kg): notable motor and other side effects (including sedation)

Structure (SMILES): CCCC(CCC)C(=O)O [valproate]
- motor and other side effects [5]: notable motor and other side effects (including sedation)
